Our source for the IC50 values is patent publication US20060121069A1, “Compositions and methods for treating hair loss using oximyl and hydroxylamino prostaglandins” (Duke University, priority 2000, published 2006).

This test deals with T1, hFP (Homo sapiens, UniProt P43088).
T1 construct: expressed in transfected cells; host or cells: COS-7 cells, transient transfection with LipofectAMINE; membranes prepared
T1 sequence (P43088 whole entry): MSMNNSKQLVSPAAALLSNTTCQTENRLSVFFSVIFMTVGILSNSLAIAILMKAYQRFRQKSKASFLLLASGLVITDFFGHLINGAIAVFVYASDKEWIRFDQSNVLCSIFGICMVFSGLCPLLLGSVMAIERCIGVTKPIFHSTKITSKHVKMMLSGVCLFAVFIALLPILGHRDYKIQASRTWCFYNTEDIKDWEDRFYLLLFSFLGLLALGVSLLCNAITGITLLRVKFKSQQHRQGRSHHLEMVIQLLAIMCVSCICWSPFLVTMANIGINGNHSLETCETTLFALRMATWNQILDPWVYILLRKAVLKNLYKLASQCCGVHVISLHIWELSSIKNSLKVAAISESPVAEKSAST
As to the kind of experiment: Radioligand Binding Assay (receptor competition binding, hFP membranes). Conditions: competition against 5 nM (3H) PGF2 on hFP membrane from transfected COS-7 cells; method per Reference Example 1; read-out: IC50 of the Prostaglandin. As to the method: IC50 of a prostaglandin can be determined relative to PGF2α using the Radioligand Binding Assay. As a control, the IC50 for PGF2α itself should be no lower than 1.0 nM and no higher than 5.0 nM.
In this assay, COS-7 cells are transiently transfected with the hFP recombinant plasmid using LipofectAMINE Reagent. Forty-eight hours later, the tranfected cells are washed with Hank's Balanced Salt Solution (HBSS, without CaCl2, MgCl2, MgSO4, or phenol red). The cells are detached with versene, and HBSS is added. The mixture is centrifuged at 200g for 10 minutes, at 4° C. to pellet the cells. The pellet is resuspended in Phosphate-Buffered Saline-EDTA buffer (PBS; 1 mM EDTA; pH 7.4; 4° C.). The cells are disrupted by nitrogen cavitation (Parr model 4639), at 800 psi, for 15 minutes at 4° C. The mixture is centrifuged at 1000 g for 10 minutes at 4° C. The supernatant is centrifuged at 100,000 g for 60 minutes at 4° C. The pellet is resuspended to 1 mg protein/mL TME buffer (50 mM Tris; 10 mM MgCl2; 1 mM EDTA; pH 6.0; 4° C.) based on protein levels measured using the Pierce BCA Protein Assay kit. The homogenate is mixed for 10 seconds using a Kinematica POLYTRON® (available from KINEMATICA AG, Luzernerstrasse147A CH-6014 Littau, Switzerland). The membrane preparations are then stored at −80° C., until thawed for assay use.
The receptor competition binding assays are developed in a 96 well format. Each well contains […] of hFP membrane, 5 nM (3H) PGF2, and the various competing compounds in a total volume of […]. The plates are incubated at 23° C. for 1 hour. The incubation is terminated by rapid filtration using the Packard Filtermate 196 harvester through Packard UNIFILTER® GF/B filters (available from Packard Instrument Co., Inc. of Downers Grove Ill.) pre-wetted with TME buffer. The filter is washed four times with TME buffer. […] The plates are read on a Packard TOPCOUNT® Microplate Scintillation Counter (also available from Packard Instrument Co., Inc.)
A word on the IC50: it is the concentration that gives 50% inhibition. On to `O=C(O)CCCCCC[C@H]1[C@@H](O)C/C(=N/O)[C@@H]1CC[C@@H](O)CSc1ccccc1`, for which the IC50 stood at 162 nM.

For the compound `CCCCC[C@H](O)/C=C/[C@H]1/C(=N\O)C[C@H](O)[C@@H]1C/C=C\CCCC(=O)O` [Example 1-1], the IC50 came out at 15 nM.

Consider `CCCCC[C@H](O)/C=C/[C@H]1C(NO)C[C@H](O)[C@@H]1C/C=C\CCCC(=O)O` (stereo partly drawn) [Example 1-2], for which the concentration for half-maximal inhibition (IC50) came to 150 nM.
